Measurements published in US20220062291A1, “COMPOSITIONS AND METHODS OF TREATING CANCERS BY ADMINISTERING A PHENOTHIAZINE-RELATED DRUG THAT ACTIVATES PROTEIN PHOSPHATASE 2A (PP2A) WITH REDUCED INHIBITORY ACTIVITY TARGETED TO THE DOPAMINE D2 RECEPTOR AND ACCOMPANYING TOXICITY” (DANA-FARBER CANCER INSTITUTE, INC., priority 2018, published 2022).

What was measured:
[1] = female, C57BL/6, mouse, in vivo, po, 1 week
Procedure: PPZ and iPAP1 were each given per orally to eight-week-old female C57BL/6 mice every 24 hours (n=3 for each cohort). The mice were monitored for four recognized types of dopamine receptor D2 mediated toxicity, namely: i) general activity; ii) reactivity to touch; iii) fear/startle to sound; and iv) tone of abdominal muscle. Behavioral monitoring was done at 15 minutes, 1 hour, 4 hours and 24 hours after each treatment. PPZ and iPAP1 were each administered at 0, 2.5, 5, 10, 20 and 40 mg/kg body weight/dose, and iPAP1 was also administered at 80 mg/kg body weight/dose.

[2] = test system: p-ERK and p-AKT in KOPT-K1 cells; test: Western blot of p-ERK and p-AKT; format: cell-based, human; conditions: three hours
Text: Levels of the PP2A endogenous substrates p-ERK and p-AKT in KOPT-K1 cells were examined because of the importance of the MAPK/ERK and PI3K/AKT/mTOR pathways in cancer cells.

PP2A subunits [3] = test: Co-immunoprecipitation of PP2A subunits (holoenzyme assembly); design: species or system human; conditions: KOPT-K1 cells, 10 μM, 24 hours
Text: (§1) The biochemical activity of iPAP1 was further characterized by addressing whether it acts exclusively on the three identified subunits to mediate the assembly of PP2A, or whether other proteins expressed by T-ALL cells are also required. Using baculovirus vectors, each subunit of PP2A was first expressed with a C-terminal tag in Hi5 insect cells, and then purified the subunit proteins using columns with antibodies against the tags bound to agarose beads (see, Example 5, FIG. 13-FIG. 14). […] PP2A is a unique enzyme consisting of three subunits and it needs to be properly assembled into a holoenzyme before it mediates phosphatase activity. […] The protein lysates were then immunoprecipitated with anti-PPP2CA antibody or normal IgG as a control, and the precipitates were immunoblotted with antibodies specifically detecting each of the PP2A subunits. […] Nuclear and cytoplasmic fractions were separated using NE-PER™ Nuclear and Cytoplasmic Extraction Kit (Thermo Fisher Scientific), and each of the subunits of PP2A was analyzed by western blot. Histone H3 and α tubulin expression levels were used as loading controls for nuclear and cytoplasmic fractions, respectively. […] Lysates were immunoprecipitated using an anti-PPP2CA antibody, and then blotted with antibodies specific for each PP2A subunit. […] The results of a co-immunoprecipitation assay using an anti-PPP2CA antibody for immunoprecipitation in KOPT-K1 cells treated with SMAP at 10 μM or control DMSO for 24 hours before they were lysed for protein extraction are illustrated in FIG. 9B. Lysates were immunoprecipitated using an anti-PPP2CA antibody, and then blotted with antibodies specific for each PP2A subunit.

[4] = test system: PLK1, PLK4, AURKA, KIF11, SASS6, RCC1, HAUS8, TPX2, PCNT, CENPJ and TUBG1 in KOPT-K1 cells; test: Relative mRNA expression of spindle monopolarity genes; format: cell-based, human; conditions: 1 μM, 6 hours
Procedure: The relative mRNA expression of genes whose inducible CRISPR-cas9 knockout causes cell cycle arrest in prometaphase yielding spindle monopolarity (PLK1, PLK4, AURKA, KIF11, SASS6, RCC1, HAUS8, TPX2, PCNT, CENPJ and TUBG1) (McKinley et al., Dev. Cell 40:405-420 (2017)) was evaluated in […] cell lines. […] The results are illustrated in FIG. 33.

[5] = test system: 274 cancer cell lines from 39 distinct types of human cancers; test: PRISM analysis of cell viability; format: cell-based; conditions: 5 μM, 5 days
Procedure: Many other human cell lines from hematologic malignancies and solid tumors were as sensitive as the most sensitive T-ALL cell lines to treatment with iPAP1. Cell lines with a relative viability below the dashed line at 0.5 have an IC50 value for iPAP1 below 5 μM.

PP2A = target: T1, PP2A (Homo sapiens, UniProt P30153+P67775+Q16537); test: PP2A phosphatase activity in treated KOPT-K1 cells; format: cell-based
T1 construct: are endogenously expressed by KOPTK1 cells; endogenous in cells; host or cells: KOPT-K1 T-ALL cells / lysates
Procedure: Data are presented as means±s.d. (n=3, biological replicates). KO; knock out. **P<0.01, ***P<0.001 by student's t-test.
For IC50 calculation, KOPT-K1 cells were treated with each of the compounds at various concentrations for 72 hours, followed by the determination of viable cell numbers with PrestoBlue® cell viability reagent. For the PP2A phosphatase activity assay, KOPT-K1 cells were treated with each of the compounds at 10 μM for 3 hours before phosphatase activity was measured. Dopamine D2 receptor activity was monitored in HEK293T cells coexpressing the dopamine D2 receptor, modified G protein and SRE luciferase reporter. Cells were treated with each of the compound at 10 μM for 3 hours, then lysed for the luciferase reporter assay.
For IC50 calculations, KOPT-K1 cells were treated with each of the compound at various concentrations for 72 hours, then their viability was examined by PrestoBlue® Cell Viability Reagent (Thermo Fisher Scientific). […] DRD2 activity was monitored in HEK293T cells expressing DRD2, modified G protein and SRE luciferase reporter. Cells were treated with each of the compounds at 10 μM for three hours, then lysed for luciferase reporter assay. […] The biochemical assays were performed as indicated in Examples 7 and 8.

PP2A subunits [6] = target: T2, PP2A subunits (Homo sapiens, UniProt P30153+P67775+Q16537); test: Co-immunoprecipitation of PP2A subunits (holoenzyme assembly); conditions: purified subunits from insect cells
T2 construct: are endogenously expressed by KOPTK1 cells; endogenous in cells; host or cells: KOPT-K1 T-ALL cells / lysates
Text: as §1

T1 sequence (P30153 2-589): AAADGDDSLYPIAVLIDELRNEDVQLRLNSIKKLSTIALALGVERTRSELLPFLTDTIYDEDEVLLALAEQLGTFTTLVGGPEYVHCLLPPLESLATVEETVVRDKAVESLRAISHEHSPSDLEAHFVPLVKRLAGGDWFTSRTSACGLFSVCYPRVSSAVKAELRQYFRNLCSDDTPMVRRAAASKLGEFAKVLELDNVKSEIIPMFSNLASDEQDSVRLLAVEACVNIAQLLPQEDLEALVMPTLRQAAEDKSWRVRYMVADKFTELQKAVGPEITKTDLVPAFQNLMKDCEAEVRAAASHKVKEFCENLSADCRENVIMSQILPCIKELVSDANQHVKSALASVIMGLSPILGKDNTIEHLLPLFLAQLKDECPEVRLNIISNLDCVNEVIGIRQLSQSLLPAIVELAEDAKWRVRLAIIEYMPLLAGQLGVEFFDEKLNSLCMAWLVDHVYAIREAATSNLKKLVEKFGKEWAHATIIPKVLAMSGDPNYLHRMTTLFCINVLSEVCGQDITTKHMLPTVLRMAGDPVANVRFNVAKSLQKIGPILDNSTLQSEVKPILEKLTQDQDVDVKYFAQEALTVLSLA
T1 sequence (P67775 whole entry): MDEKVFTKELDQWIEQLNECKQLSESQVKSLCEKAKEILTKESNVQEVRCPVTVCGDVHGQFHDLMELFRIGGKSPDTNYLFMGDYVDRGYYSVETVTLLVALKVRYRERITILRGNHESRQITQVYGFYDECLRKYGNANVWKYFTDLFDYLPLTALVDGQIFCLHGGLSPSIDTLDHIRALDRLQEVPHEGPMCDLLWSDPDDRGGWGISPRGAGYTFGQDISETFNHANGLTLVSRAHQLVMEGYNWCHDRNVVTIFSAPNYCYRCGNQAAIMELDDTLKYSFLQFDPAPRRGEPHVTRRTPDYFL
T1 sequence (Q16537 2-467): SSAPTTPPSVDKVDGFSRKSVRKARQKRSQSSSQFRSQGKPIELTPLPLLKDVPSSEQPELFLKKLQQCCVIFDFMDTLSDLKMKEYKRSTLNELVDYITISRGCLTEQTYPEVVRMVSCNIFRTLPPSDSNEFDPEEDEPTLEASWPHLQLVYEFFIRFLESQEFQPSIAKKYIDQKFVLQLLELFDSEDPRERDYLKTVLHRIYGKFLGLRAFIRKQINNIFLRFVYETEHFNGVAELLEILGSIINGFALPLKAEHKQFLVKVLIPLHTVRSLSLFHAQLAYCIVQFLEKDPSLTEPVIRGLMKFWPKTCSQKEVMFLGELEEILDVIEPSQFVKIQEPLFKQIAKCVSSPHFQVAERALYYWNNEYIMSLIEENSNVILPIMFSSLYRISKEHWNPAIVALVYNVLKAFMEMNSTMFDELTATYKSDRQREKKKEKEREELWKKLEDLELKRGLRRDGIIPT
T2 sequence (P30153 2-589): as the sequence (P30153 2-589) above
T2 sequence (P67775 whole entry): as the sequence (P67775 whole entry) above
T2 sequence (Q16537 2-467): as the sequence (Q16537 2-467) above

SMILES	dose showing neurological toxicity [1]	phosphorylation of ERK and AKT [2]	PP2A subunits co-immunoprecipitated with anti-PPP2CA antibody (PP2A subunits [3])	relative mRNA expression [4]	cell killing compared with PPZ in every cell line [5]	more active than PPZ for stimulating PP2A phosphatase activity (PP2A; KOPT-K1, 10 μM for three hours)	phosphatase activity of PP2A relative to basal level (PP2A; WT KOPT-K1 cells, 1 μM)	assembly of purified PPP2R1A, PPP2CA and PPP2R5E (PP2A subunits [6])
OCCN1CCN(CCCN2c3ccccc3Sc3ccc(Cl)cc32)CC1 [PPZ, perphenazine, reference compound]	≥ 5 mg/kg body weight/dose	significantly reduced	PPP2CA uniquely binds to PPP2R1A and PPP2R5E	–	–	–	–	–
COc1ccc(C(=O)N2c3ccccc3Sc3ccc(Cl)cc32)cc1 [iPAP1]	–	–	–	significantly down-regulated the expression levels of most of these genes	more active in cell killing than was PPZ	10 times	up to twice its basal level	assembled into an active enzyme complex
